Test results published in PubChem BioAssay (NCI).
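How tested: cells in 96-well plates exposed to compound for 48 hours at five concentrations. The concentration for 50% growth inhibition is given as GI50. TGI denotes the concentration required for complete inhibition of growth.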

How the values were obtained:
Test in all cases: NCI tumour cell line growth inhibition, 48 h
SNB-19 CNS = test system: SNB-19 CNS
SNB-75 CNS = test system: SNB-75 CNS
DU-145 prostate = test system: DU-145 prostate
BT-549 breast = test system: BT-549 breast
HT29 colon = test system: HT29 colon
A498 renal = test system: A498 renal
KM12 colon = test system: KM12 colon
U251 CNS = test system: U251 CNS
SF-539 CNS = test system: SF-539 CNS
UACC-62 melanoma = test system: UACC-62 melanoma
NCI-H460 lung = test system: NCI-H460 lung
SF-268 CNS = test system: SF-268 CNS
MDA-MB-231 breast = test system: MDA-MB-231 breast
MDA-MB-435 = test system: MDA-MB-435
TK-10 renal = test system: TK-10 renal
PC-3 prostate = test system: PC-3 prostate
SK-OV-3 ovarian = test system: SK-OV-3 ovarian
NCI-H522 lung = test system: NCI-H522 lung
786-0 renal = test system: 786-0 renal
CAKI-1 renal = test system: CAKI-1 renal
SW-620 colon = test system: SW-620 colon
IGROV1 ovarian = test system: IGROV1 ovarian
LOX IMVI melanoma = test system: LOX IMVI melanoma
MALME-3M melanoma = test system: MALME-3M melanoma
SK-MEL-5 melanoma = test system: SK-MEL-5 melanoma
HCT-116 colon = test system: HCT-116 colon
UO-31 renal = test system: UO-31 renal
ACHN renal = test system: ACHN renal
COLO 205 colon = test system: COLO 205 colon
CCRF-CEM leukemia = test system: CCRF-CEM leukemia
SK-MEL-28 melanoma = test system: SK-MEL-28 melanoma
RPMI-8226 leukemia = test system: RPMI-8226 leukemia
SR leukemia = test system: SR leukemia
SN12C renal = test system: SN12C renal
HOP-62 NSCLC = test system: HOP-62 NSCLC
NCI/ADR-RES ovarian = test system: NCI/ADR-RES ovarian
HL-60(TB) leukemia = test system: HL-60(TB) leukemia
HS 578T breast = test system: HS 578T breast
OVCAR-8 ovarian = test system: OVCAR-8 ovarian
T-47D breast = test system: T-47D breast
HCC-2998 colon = test system: HCC-2998 colon
OVCAR-5 ovarian = test system: OVCAR-5 ovarian
UACC-257 melanoma = test system: UACC-257 melanoma
RXF 393 renal = test system: RXF 393 renal
MCF7 breast = test system: MCF7 breast
K-562 leukemia = test system: K-562 leukemia
HCT-15 colon = test system: HCT-15 colon
NCI-H23 lung = test system: NCI-H23 lung
EKVX NSCLC = test system: EKVX NSCLC
NCI-H226 lung = test system: NCI-H226 lung
M14 melanoma = test system: M14 melanoma
OVCAR-3 ovarian = test system: OVCAR-3 ovarian
SF-295 CNS = test system: SF-295 CNS
SK-MEL-2 melanoma = test system: SK-MEL-2 melanoma
OVCAR-4 ovarian = test system: OVCAR-4 ovarian
HOP-92 NSCLC = test system: HOP-92 NSCLC
MOLT-4 leukemia = test system: MOLT-4 leukemia
A549 NSCLC = test system: A549 NSCLC

**Q.** What does the source list for `Cc1ccccc1NC(=O)Nc1nc2ccc([N+](=O)[O-])cc2s1`?
**A.** GI50 (SNB-19 CNS): 2.72 µM; TGI (SNB-19 CNS): 7.77 µM; GI50 (SNB-75 CNS): 1.77 µM; TGI (SNB-75 CNS): 4.78 µM; GI50 (DU-145 prostate): 3.23 µM; TGI (DU-145 prostate): 11.2 µM; GI50 (BT-549 breast): 2.18 µM; TGI (BT-549 breast): 4.53 µM; GI50 (HT29 colon): 2.03 µM; TGI (HT29 colon): 4.96 µM; GI50 (A498 renal): 1.89 µM; TGI (A498 renal): 4.41 µM; GI50 (KM12 colon): 2.49 µM; TGI (KM12 colon): 8.57 µM; GI50 (U251 CNS): 1.77 µM; TGI (U251 CNS): 3.67 µM; GI50 (SF-539 CNS): 2.03 µM; TGI (SF-539 CNS): 4.43 µM; GI50 (UACC-62 melanoma): 2.46 µM; TGI (UACC-62 melanoma): 10.6 µM; GI50 (NCI-H460 lung): 2.31 µM; TGI (NCI-H460 lung): 6.24 µM; GI50 (SF-268 CNS): 3.06 µM; TGI (SF-268 CNS): 9.95 µM; GI50 (MDA-MB-231 breast): 2.74 µM; TGI (MDA-MB-231 breast): 8.94 µM; GI50 (MDA-MB-435): 2.1 µM; TGI (MDA-MB-435): 5.71 µM; GI50 (TK-10 renal): 2.9 µM; TGI (TK-10 renal): 7.11 µM; GI50 (PC-3 prostate): 1.78 µM; TGI (PC-3 prostate): 4.23 µM; GI50 (SK-OV-3 ovarian): 2.05 µM; TGI (SK-OV-3 ovarian): 5.43 µM; GI50 (NCI-H522 lung): 1.47 µM; TGI (NCI-H522 lung): 4.24 µM; GI50 (786-0 renal): 2.7 µM; TGI (786-0 renal): 8.41 µM; GI50 (CAKI-1 renal): 1.68 µM; TGI (CAKI-1 renal): 4.02 µM; GI50 (SW-620 colon): 2.54 µM; TGI (SW-620 colon): 7.86 µM; GI50 (IGROV1 ovarian): 3.38 µM; TGI (IGROV1 ovarian): 13.4 µM; GI50 (LOX IMVI melanoma): 1.83 µM; TGI (LOX IMVI melanoma): 3.53 µM; GI50 (MALME-3M melanoma): 2.1 µM; TGI (MALME-3M melanoma): 4.99 µM; GI50 (SK-MEL-5 melanoma): 1.59 µM; TGI (SK-MEL-5 melanoma): 3.19 µM; GI50 (HCT-116 colon): 2.24 µM; TGI (HCT-116 colon): 5.21 µM; GI50 (UO-31 renal): 2.02 µM; TGI (UO-31 renal): 6.33 µM; GI50 (ACHN renal): 1.88 µM; TGI (ACHN renal): 4.53 µM; GI50 (COLO 205 colon): 1.61 µM; TGI (COLO 205 colon): 3.16 µM; GI50 (CCRF-CEM leukemia): 1.76 µM; TGI (CCRF-CEM leukemia): 5.28 µM; GI50 (SK-MEL-28 melanoma): 2.26 µM; TGI (SK-MEL-28 melanoma): 6.29 µM; GI50 (RPMI-8226 leukemia): 1.43 µM; TGI (RPMI-8226 leukemia): 3.76 µM; GI50 (SR leukemia): 1.73 µM; TGI (SR leukemia): 4.11 µM; GI50 (SN12C renal): 2.38 µM; TGI (SN12C renal): 7.12 µM; GI50 (HOP-62 NSCLC): 2.49 µM; TGI (HOP-62 NSCLC): 7.01 µM; GI50 (NCI/ADR-RES ovarian): 2.12 µM; TGI (NCI/ADR-RES ovarian): 5.03 µM; GI50 (HL-60(TB) leukemia): 1.79 µM; TGI (HL-60(TB) leukemia): 3.87 µM; GI50 (HS 578T breast): 2.4 µM; TGI (HS 578T breast): 6.64 µM; GI50 (OVCAR-8 ovarian): 2.81 µM; TGI (OVCAR-8 ovarian): 9.9 µM; GI50 (T-47D breast): 2.22 µM; TGI (T-47D breast): 6.28 µM; GI50 (HCC-2998 colon): 2.29 µM; TGI (HCC-2998 colon): 5.38 µM; GI50 (OVCAR-5 ovarian): 2.98 µM; TGI (OVCAR-5 ovarian): 11.3 µM; GI50 (UACC-257 melanoma): 1.89 µM; TGI (UACC-257 melanoma): 5.12 µM; GI50 (RXF 393 renal): 1.89 µM; TGI (RXF 393 renal): 4.29 µM; GI50 (MCF7 breast): 2.36 µM; TGI (MCF7 breast): 6.69 µM; GI50 (K-562 leukemia): 1.53 µM; TGI (K-562 leukemia): 4.76 µM; GI50 (HCT-15 colon): 2.12 µM; TGI (HCT-15 colon): 5.48 µM; GI50 (NCI-H23 lung): 1.79 µM; TGI (NCI-H23 lung): 4.7 µM; GI50 (EKVX NSCLC): 2.16 µM; TGI (EKVX NSCLC): 6.01 µM; GI50 (NCI-H226 lung): 2.29 µM; TGI (NCI-H226 lung): 6.21 µM; GI50 (M14 melanoma): 2.42 µM; TGI (M14 melanoma): 5.85 µM; GI50 (OVCAR-3 ovarian): 1.84 µM; TGI (OVCAR-3 ovarian): 4.33 µM; GI50 (SF-295 CNS): 1.72 µM; TGI (SF-295 CNS): 3.61 µM; GI50 (SK-MEL-2 melanoma): 1.98 µM; TGI (SK-MEL-2 melanoma): 4.49 µM; GI50 (OVCAR-4 ovarian): 2.65 µM; TGI (OVCAR-4 ovarian): 9.13 µM; GI50 (HOP-92 NSCLC): 1.59 µM; TGI (HOP-92 NSCLC): 4.19 µM; GI50 (MOLT-4 leukemia): 1.76 µM; TGI (MOLT-4 leukemia): 4.02 µM; GI50 (A549 NSCLC): 2.17 µM; TGI (A549 NSCLC): 5.8 µM
